Experimental data published in patent publication EP2601188B1, “HEPATITIS C VIRUS INHIBITORS” (Bristol-Myers Squibb Company, priority 2010, dated 2012).
pEC50: −log10 of the molar value. Read-outs that look alike come from different tables or passages of the source.

Tested on: HCV 1b genotype
Assay: HCV Replicon assay (HCV-neo replicon cells, wild-type)
Format: cell-based
Details: Hepatitis C virus, HCV 1b genotype replicon; for pEC50: class symbols, read-out: EC50 Range; for EC50: read-out: EC50
Procedure: An HCV Replicon assay was utilized in the present disclosure, and was prepared, conducted and validated as described in commonly owned PCT/US2006/022197 and in O'Boyle et. al. Antimicrob Agents Chemother. 2005 Apr;49(4):1346-53. Assay methods incorporating luciferase reporters have also been used as described (Apath.com).
HCV-neo replicon cells and replicon cells containing mutations in the NS5A region were used to test the currently described family of compounds. The compounds were determined to have more than 10-fold less inhibitory activity on cells containing mutations than wild-type cells. Thus, the compounds of the present disclosure can be effective in inhibiting the function of the HCV NS5A protein and are understood to be as effective in combinations as previously described in application PCT/US2006/022197 and commonly owned WO/O4014852. Further, the compounds of the present disclosure can be effective against the HCV 1b genotype. It should also be understood that the compounds of the present disclosure can inhibit multiple genotypes of HCV. […] In one embodiment, compounds of the present disclosure are inhibitory versus 1a, 1b, 2a, 2b, 3a, 4a, and 5a genotypes.

Structure (SMILES) | pEC50 | other results
COC(=O)N[C@H](C(=O)N1CCC[C@H]1c1nc[nH]c1-c1cccc(C#Cc2ccc3[nH]c([C@@H]4CCCN4C(=O)[C@H](NC(=O)OC)C(C)C)nc3c2)c1)C(C)C (stereo in doubt) [J.281, methyl ((1S)-1-(((2S)-2-(5-(3-((2-((2S)-1-((2R)-2-((methoxycarbonyl)amino)-3-methylbutanoyl)-2-pyrrolidinyl)-1H-benzimidazol-5-yl)ethynyl)phenyl)-1H-imidazol-4-yl)-1-pyrrolidinyl)carbonyl)-2-methylpropyl)carbamate] | 7.00 to 8.34 | EC50 (values in nM): 7 nM
COC(=O)N[C@H](C(=O)N1[C@@H]2C[C@@H]2C[C@H]1c1nc2c([nH]1)-c1ccc(-c3ccc4[nH]c([C@@H]5C[C@H]6C[C@H]6N5C(=O)[C@@H](NC(=O)OC)C(C)C)nc4c3)cc1CCC2)C(C)C [J.24, methyl ((1S)-1-(((1R,3S,5R)-3-(8-(2-((1R,3S,5R)-2-((2S)-2-((methoxycarbonyl)amino)-3-methylbutanoyl)-2-azabicyclo[3.1.0]hex-3-yl)-1H-benzimidazol-5-yl)-1,4,5,6-tetrahydrobenzo[3,4]cyclohepta[1,2-d]imidazol-2-yl)-2-azabicyclo[3.1.0]hex-2-yl)carbonyl)-2-methylpropyl)carbamate] |  | EC50 (values given in pM): 0.01 nM
COC(=O)N[C@H](C(=O)N1CCC[C@H]1c1nc(-c2ccc(-c3ccc(-c4ccc5[nH]c([C@@H]6CCCN6C(=O)[C@@H](NC(=O)OC)C(C)C)nc5c4)cc3)cc2)c[nH]1)C(C)C [J.26, methyl ((1S)-1-(((2S)-2-(5-(4'-(2-((2S)-1-((2S)-2-((methoxycarbonyl)amino)-3-methylbutanoyl)-2-pyrrolidinyl)-1H-imidazol-4-yl)-4-biphenylyl)-1H-benzimidazol-2-yl)-1-pyrrolidinyl)carbonyl)-2-methylpropyl)carbamate] |  | EC50 (values given in pM): 0.005 nM
COC(=O)N[C@@H](C(=O)N1CCC[C@H]1c1nc2cc(-c3ccc(-c4ccc5c(ccc6nc([C@@H]7CCCN7C(=O)[C@H](NC(=O)OC)c7ccccc7)[nH]c65)c4)cc3)ccc2[nH]1)c1ccccc1 [J.27c, methyl ((1R)-2-((2S)-2-(7-(4-(2-((2S)-1-((2R)-2-((methoxycarbonyl)amino)-2-phenylacetyl)-2-pyrrolidinyl)-1H-benzimidazol-5-yl)phenyl)-1H-naphtho[1,2-d]imidazol-2-yl)-1-pyrrolidinyl)-2-oxo-1-phenylethyl)carbamate] |  | EC50 (values given in pM): 0.003 nM
COC(=O)N[C@H](C(=O)N1CCC[C@H]1c1nc2c(F)cc(C#Cc3ccc4c(ccc5nc([C@@H]6CCCN6C(=O)[C@@H](NC(=O)OC)C(C)C)[nH]c54)c3)cc2[nH]1)C(C)C [J.28h, methyl ((1S)-1-(((2S)-2-(4-fluoro-6-((2-((2S)-1-((2S)-2-((methoxycarbonyl)amino)-3-methylbutanoyl)-2-pyrrolidinyl)-1H-naphtho [1,2-d]imidazol-7-yl)ethynyl)-1H-benzimidazol-2-yl)-1-pyrrolidinyl)carbonyl)-2-methylpropyl)carbamate] |  | EC50 (values given in pM): 0.12 nM
COC(=O)NC(C(=O)N1[C@@H](C)CC[C@H]1c1nc2ccc3cc(C#Cc4ccc5[nH]c([C@@H]6CC[C@H](C)N6C(=O)[C@@H](NC(=O)OC)C(C)C)nc5c4)ccc3c2[nH]1)C1CCOCC1 (stereo partly drawn) [J.28i.4a, methyl ((1S)-1-(((2S,5S)-2-(5-((2-((2S,5S)-1-(((methoxycarbonyl)amino)(tetrahydro-2H-pyran-4-yl)acetyl)-5-methyl-2-pyrrolidinyl)-1H-naphtho[1,2-d]imidazol-7-yl)ethynyl)-1H-benzimidazol-2-yl)-5-methyl-1-pyrrolidinyl)carbonyl)-2-methylpropyl)carbamate] |  | EC50 (values in nM): 3.8 nM
CCN(CC)[C@@H](C(=O)N1CCC[C@H]1c1nc2cc(C#Cc3cccc(-c4[nH]cnc4[C@@H]4CCCN4C(=O)[C@@H](c4ccccc4)N(CC)CC)c3)ccc2[nH]1)c1ccccc1 [J.28m, (1R)-2-((2S)-2-(5-(3-((2-((2S)-1-((2R)-2-(diethylamino)-2-phenylacetyl)-2-pyrrolidinyl)-1H-benzimidazol-5-yl)ethynyl)phenyl)-1H-imidazol-4-yl)-1-pyrrolidinyl)-N,N-diethyl-2-oxo-1-phenylethanamine] | 7.00 to 8.34 | EC50 (values in nM): 55.7 nM
COc1cccc2c(C(=O)N3CCC[C@H]3C(=O)Nc3cccc(-c4ncc(-c5ccc6[nH]c([C@@H]7CCCN7C(=O)c7nc(Cl)cc8c(OC)cccc78)nc6c5)o4)c3)nc(Cl)cc12 [J.48d, 1-((3-chloro-5-methoxy-1-isoquinolinyl)carbonyl)-N-(3-(5-(2-((2S)-1-((3-chloro-5-methoxy-1-isoquinolinyl)carbonyl)-2-pyrrolidinyl)-1H-benzimidazol-5-yl)-1,3-oxazol-2-yl)phenyl)-L-prolinamide] | 6.00 to 7.00 | EC50 (values in nM): 147 nM
O=C(Nc1ccc(-c2ncc(-c3ccc4[nH]c([C@@H]5CCCN5C(=O)[C@H](O)c5ccccc5)nc4c3)o2)cc1)[C@@H]1CCCN1C(=O)[C@H](O)c1ccccc1 [J.50, 1-((2R)-2-hydroxy-2-phenylacetyl)-N-(4-(5-(2-((2S)-1-((2R)-2-hydroxy-2-phenylacetyl)-2-pyrrolidinyl)-1H-benzimidazol-5-yl)-1,3-oxazol-2-yl)phenyl)-L-prolinamide] | 7.00 to 8.34 | 
COc1cccc2c(C(=O)N3CCC[C@H]3C(=O)Nc3ccc(-c4ncc(-c5ccc6[nH]c([C@@H]7CCCN7C(=O)c7nc(Cl)cc8c(OC)cccc78)nc6c5)o4)cc3)nc(Cl)cc12 [J.50c, 1-((3-chloro-5-methoxy-1-isoquinolinyl)carbonyl)-N-(4-(5-(2-((2S)-1-((3-chloro-5-methoxy-1-isoquinolinyl)carbonyl)-2-pyrrolidinyl)-1H-benzimidazol-5-yl)-1,3-oxazol-2-yl)phenyl)-L-prolinamide] | 5.00 to 6.00 | EC50 (value given in µM): > 10000 nM
O=C(Nc1ccc(-c2ncc(-c3ccc4[nH]c([C@@H]5CCCN5C(=O)[C@H](O)c5ccccc5)nc4c3)o2)cc1F)[C@@H]1CCCN1C(=O)[C@H](O)c1ccccc1 [J.51, N-(2-fluoro-4-(5-(2-((2S)-1-((2R)-2-hydroxy-2-phenylacetyl)-2-pyrrolidinyl)-1H-benzimidazol-5-yl)-1,3-oxazol-2-yl)phenyl)-1-((2R)-2-hydroxy-2-phenylacetyl)-L-prolinamide] | 7.00 to 8.34 | 
COc1cccc2c(C(=O)N3CCC[C@H]3C(=O)Nc3ccc(-c4ncc(-c5ccc6[nH]c([C@@H]7CCCN7C(=O)c7nc(Cl)cc8c(OC)cccc78)nc6c5)o4)cc3F)nc(Cl)cc12 [J.51b, 1-((3-chloro-5-methoxy-1-isoquinolinyl)carbonyl)-N-(4-(5-(2-((2S)-1-((3-chloro-5-methoxy-1-isoquinolinyl)carbonyl)-2-pyrrolidinyl)-1H-benzimidazol-5-yl)-1,3-oxazol-2-yl)-2-fluorophenyl)-L-prolinamide] | 6.00 to 7.00 | 
Cc1ccc(-c2ncc(-c3ccc4[nH]c([C@@H]5CCCN5C(=O)[C@@H](c5ccccc5)N(C)C)nc4c3)o2)cc1NC(=O)[C@@H]1CCCN1C(=O)CN(C)C [J.52a, N,N-dimethylglycyl-N-(5-(5-(2-((2S)-1-((2R)-2-(dimethylamino)-2-phenylacetyl)-2-pyrrolidinyl)-1H-benzimidazol-5-yl)-1,3-oxazol-2-yl)-2-methylphenyl)-L-prolinamide] | 7.00 to 8.34 | 
O=C(Nc1cccc(-c2ncc(-c3ccc4[nH]c([C@@H]5CCCN5C(=O)CC5CC5)nc4c3)o2)c1)[C@@H]1CCCN1C(=O)CC1CC1 [J.53, 1-(cyclopropylacetyl)-N-(3-(5-(2-((2S)-1-(cyclopropylacetyl)-2-pyrrolidinyl)-1H-benzimidazol-5-yl)-1,3-oxazol-2-yl)phenyl)-L-prolinamide] | 6.00 to 7.00 | 
O=C(Nc1cccc(-c2cnc(-c3ccc4[nH]c([C@@H]5CCCN5C(=O)CC5CC5)nc4c3)o2)c1)[C@@H]1CCCN1C(=O)CC1CC1 [J.53a, 1-(cyclopropylacetyl)-N-(3-(2-(2-((2S)-1-(cyclopropylacetyl)-2-pyrrolidinyl)-1H-benzimidazol-5-yl)-1,3-oxazol-5-yl)phenyl)-L-prolinamide] | 5.00 to 6.00 | 
COC(=O)N[C@@H](C(=O)N1CCC[C@H]1c1nc(C#Cc2ccc(-c3ccc4[nH]c([C@@H]5CCCN5C(=O)[C@H](NC(=O)OC)C(C)C)nc4c3)cc2)c[nH]1)C(C)C [JB.8.1, methyl ((1R)-1-(((2S)-2-(4-((4-(2-((2S)-1-((2R)-2-((methoxycarbonyl)amino)-3-methylbutanoyl)-2-pyrrolidinyl)-1H-benzimidazol-5-yl)phenyl)ethynyl)-1H-imidazol-2-yl)-1-pyrrolidinyl)carbonyl)-2-methylpropyl)carbamate] | 6.00 to 7.00 | 
O=C([C@@H](c1ccccc1)N1CCCCC1)N1CCC[C@H]1c1nc(C#Cc2ccc(-c3ccc4[nH]c([C@@H]5CCCN5C(=O)[C@@H](c5ccccc5)N5CCCCC5)nc4c3)cc2)c[nH]1 [JB.12, 2-((2S)-1-((2R)-2-phenyl-2-(1-piperidinyl)acetyl)-2-pyrrolidinyl)-5-(4-((2-((2S)-1-((2R)-2-phenyl-2-(1-piperidinyl)acetyl)-2-pyrrolidinyl)-1H-imidazol-4-yl)ethynyl)phenyl)-1H-benzimidazole] |  | EC50 (values given in pM): 0.0652 nM
CC(=O)N1CCC[C@H]1C(=O)Nc1ccc(C#Cc2ccc3nc([C@@H]4CCCN4C(=O)Cc4ccccc4)[nH]c3c2)cc1 [M.8, (S)-1-acetyl-N-(4-((2-((S)-1-(2-phenylacetyl)pyrrolidin-2-yl)-1H-benzo[d]imidazol-6-yl)ethynyl)phenyl)pyrrolidine-2-carboxamide] | 7.00 to 8.34 | EC50 (values in nM): 46.4 nM
